# Earlier results in paper PMC4226840, “An open-label study to determine the maximum tolerated dose of the multitargeted tyrosine kinase inhibitor CEP-11981 in patients with advanced cancer” (Investigational New Drugs, 2014).
# What was measured:
# [1] = tested on: VEGFR-2; conditions: HUVEC; cited from earlier work
# [2] = tested on: treatment refractory metastatic colorectal cancer; design: method as in PMID 23177514; conditions: phase III, monotherapy, versus 5.0 months, P = 0.0052; cited from earlier work
smiles,measurement,setting,value
CNC(=O)c1cc(Oc2ccc(NC(=O)Nc3ccc(Cl)c(C(F)(F)F)c3)c(F)c2)ccn1 [regorafenib],Overall survival,[2],6.4 months
